Where a name gives a salt, the structure may show the parent alone.

One may read the IC50 as the point on the concentration scale where inhibition reaches its midpoint. A lower IC50 goes with greater potency. As a reminder, the melting point is the temperature, or range, at which the solid turns liquid.

For the first data set, the target named is T1, α7-subtype of nicotinic receptors (Rattus norvegicus, UniProt Q05941).
T1 construct: Cerebral cortices from male Wistar rats (150–250 g) are homogenised; from tissue; host or cells: rat cerebral cortex membrane homogenate (male Wistar rats)
T1 sequence (Q05941 23-502): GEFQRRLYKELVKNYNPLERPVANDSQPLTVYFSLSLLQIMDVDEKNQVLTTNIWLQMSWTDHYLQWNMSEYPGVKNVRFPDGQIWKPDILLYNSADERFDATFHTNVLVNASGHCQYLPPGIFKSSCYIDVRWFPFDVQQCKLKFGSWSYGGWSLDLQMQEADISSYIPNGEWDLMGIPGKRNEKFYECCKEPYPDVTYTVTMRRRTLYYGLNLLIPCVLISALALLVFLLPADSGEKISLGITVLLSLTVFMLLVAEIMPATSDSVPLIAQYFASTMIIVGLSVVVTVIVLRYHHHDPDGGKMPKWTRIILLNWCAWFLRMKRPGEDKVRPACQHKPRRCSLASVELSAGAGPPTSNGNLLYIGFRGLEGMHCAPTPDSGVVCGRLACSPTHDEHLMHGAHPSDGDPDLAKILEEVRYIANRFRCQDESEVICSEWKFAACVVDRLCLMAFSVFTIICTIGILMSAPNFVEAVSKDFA
The data set is described as follows: In vitro inhibition of 3H-α-bungarotoxine binding in rat brain. The following applies: cerebral cortices from male Wistar rats, homogenate; 3H-α-bungarotoxine 2 nM; 2 hours at 37° C.
The compound `c1ccc(-c2nnc(N3CCN4CCC3CC4)o2)cc1` [Compound D1, 4-(5-Phenyl-1,3,4-oxadiazol-2-yl)-1,4-diazabicyclo[3.2.2]nonane fumaric acid salt] had an IC50 of 5.8 nM.

As for `O=C(O)/C=C/C(=O)O.c1csc(-c2nnc(N3CCN4CCC3CC4)o2)c1` [Compound D5, 4-[5-(2-Thienyl)-1,3,4-oxadiazol-2-yl]-1,4-diazabicyclo[3.2.2]nonane fumaric acid salt], the half-maximal inhibitory concentration (IC50) came out at 22 nM.

`c1ccc(-c2nnc(N3CCN4CCC3CC4)s2)cc1` [Compound 1A, 4-(5-Phenyl-1,3,4-thiadiazol-2-yl)-1,4-diazabicyclo[3.2.2]nonane fumaric acid salt] registered a 50% inhibitory concentration (IC50) of 6.7 nM.

System in a further data set: not given
Test: not given
Conditions: not given
Compound `O=C(O)/C=C/C(=O)O.c1coc(-c2nnc(N3CCN4CCC3CC4)o2)c1` had a melting point of 175 °C.

Consider `O=C(O)/C=C/C(=O)O.c1ccc(-c2ccc(-c3nnc(N4CCN5CCC4CC5)o3)cc2)cc1`, for which the melting point was 238 to 239 °C.

Regarding `COc1cccc(-c2nnc(N3CCN4CCC3CC4)o2)c1.O=C(O)/C=C/C(=O)O`, the melting point was in the range of 126 to 164 °C.

With `COc1ccc(-c2nnc(N3CCN4CCC3CC4)o2)cc1.O=C(O)/C=C/C(=O)O`, the melting point lay within 190.1 to 191.2 °C.

`O=C(O)/C=C/C(=O)O.c1cc(-c2nnc(N3CCN4CCC3CC4)o2)ccn1` yielded a melting point of 165.9 to 166.8 °C.

In turn, `O=C(O)/C=C/C(=O)O.c1ccc2cc(-c3nnc(N4CCN5CCC4CC5)o3)ccc2c1` registered a melting point of 194.6 to 195.7 °C.

`O=C(O)/C=C/C(=O)O.c1csc(-c2nnc(N3CCN4CCC3CC4)o2)c1` [Compound D5, 4-[5-(2-Thienyl)-1,3,4-oxadiazol-2-yl]-1,4-diazabicyclo[3.2.2]nonane fumaric acid salt] registered a melting point of 161.8 to 162.7 °C.

For the compound `O=C(O)/C=C/C(=O)O.c1cncc(-c2nnc(N3CCN4CCC3CC4)o2)c1`, the melting point was in the range of 176.8 to 177.5 °C.

Compound `Clc1ccc(-c2nnc(N3CCN4CCC3CC4)o2)cc1.O=C(O)/C=C/C(=O)O` yielded a melting point of 184.3 to 185.8 °C.

These data come from US7220741B2, “1,4-diazabicycloalkane derivatives, their preparation and use” (NeuroSearch A/S, priority 2002, dated 2007).
